Experimental data as given in patent US6448034B1, “Production of variant nisin” (priority 1994, dated 2002).
≈ marks a conversion by molar mass, not a printed value. Marks after values point to notes of the source that are not given here.

How the values were obtained:
[1] = test system: sensitive L. Lactis strain MG1614; experiment: Minimum inhibitory concentration (MIC); assay type: cell-based; conditions: Table 5
[2] = test system: Lactobacillus helveticus CH-1; conditions: plate diffusion bioassay; plasmid-encoded nisA gene complementing nisA deficiency in host strain FI7332; cited from earlier work
[3] = test system: sensitive indicator strains; conditions: work described in WO 93/20213; cited from earlier work
[4] = test system: Lactobacillus helveticus CH-1; experiment: Plate diffusion bioassay of cell-free extracts / culture supernatants; assay type: cell-based
Description: 150 μl samples of cell free extracts from strains: 4, FI5876; 5, FI7990; 6, FI8070; 7, FI8198; 8, FI8199 were loaded into wells bored in MRS agar seeded with the indicator strains Lactobacillus helveticus CH-1. Plates were incubated overnight at 42° C. Standards included on the assay plate are: 1,50; 2,100; 3,200; 9,300; 10,400 U/ml.
(§1) Nisin activity in Lactococcal strains was assayed by both deferred and direct means. Plate diffusion bioassays were performed as previously described (Dodd et al (1992) Appl. Environ. Microbiol. 58, 3683-3693. Colonies growing on the surface of a GM17 plate were directly assayed by inverting over chloroform for 12 minutes and overlaying with agar seeded with the nisin sensitive L. lactis strain MG1614. Plates were incubated overnight and zone sizes around colonies compared with those of controls. Nisin immunity was determined by streaking cultures on a series of GM17 agar plates containing an increasing concentration of nisin and assessing the degree of growth at the different nisin levels. Control cultures (FI5876, positive) and MG1614 (negative) were included on each plate.
This corresponds to an increase of approximately 50% of nisin A levels, under the conditions used here (Table 1). This higher level of production was not found in the extracts of FI8199, producing the double mutant nisin A/Dha5A,Dha33A. […] In all cases the yield for a particular nisin variant was higher when using this gene replacement strategy than when the equivalent plasmid-encoded gene was employed in a plasmid complementation system (Table 3, Dodd et al (1992) (1993) supra).

[5] = test system: FI7847 [nisA-(fs)]; experiment: Induction by nisin / nisin variants as inducing agent; assay type: cell-based, L. lactis; set-up: Induction: unit not given here; conditions: strain FI7847
Description: A particularly preferred embodiment of the third aspect of the invention is wherein the cells are cultured in the presence of nisA nisin or a variant nisin which can induce nisin expression. […] By adding sub-inhibitory concentrations of nisin to the growth medium, during fermentation, higher levels of the variant nisin are produced. Any variants that are less efficient as inducing agents benefit from the inclusion of nisin in the growth medium (ie a nisin induction step in the purification procedure). The amount of induction varies depending on the initial induction capacity of any particular variant (with I30W nisin A production more than doubled as a result of induction). Induction may be routinely included in the method as a means of maximising production levels. Any concerns about contamination with the wild type molecule are minimal as the nisin concentration required for induction is negligible compared to the amount of nisin variant being purified. Conveniently, the nisA nisin is a minimum amount that provides maximal induction of nisin production. This amount can be determined empirically by a person skilled in the art. Suitable nisA nisin concentrations for induction in this embodiment are from 1 nM to 500 nM, preferably 10 nM to 250 nM, more preferably 50 nM to 150 nM, most preferably 100 nM.
In some circumstances it is desirable to add nisA nisin as an inducer.

[6] = test system: nisin sensitive L. lactis strain MG1614; conditions: colony overlay assay; plasmid complementation; cited from earlier work
[7] = test system: FI7847 [nisA-(fs)]; experiment: Nisin immunity on GM17 agar plates with increasing nisin; assay type: cell-based, L. lactis; conditions: nisin level tolerated by strain FI7847 nisA-(fs)
Description: as §1
(§2) The effect of disruption of the nisA gene on immunity of the host strain to nisin has been described previously (Dodd et al (1992) supra). […] The nisA deleted strain FI7990 was sensitive to nisin at a concentration of between 250 and 500 U/ml compared to the parent strain, FI5876, which will continue growing in the presence of nisin to over 1000 U/ml.

[8] = test system: FI7990 (ΔnisA); experiment: as above; assay type: cell-based, L. lactis; conditions: nisin level tolerated by strain FI7990 ΔnisA
Description: as §1, §2

[9] = test system: FI5876; experiment: as above; assay type: cell-based, L. lactis
Description: as §1, §2

[10] = test system: FI8003 (nisA); experiment: as above; assay type: cell-based, L. lactis; conditions: nisin level tolerated by strain FI8003 nisA (BamHI site in promoter)
Description: as §1
A possible explanation for the difference in nisin sensitivity of these two Nis^− strains came from gene replacement studies involving the vector pFI740 (FIG. 2d). […] The only difference between the two sequences involved is that pFI740 has an additional BamHI site incorporated 80 bp upstream of the ATG start codon of nisA, and a BglII site immediately downstream of the coding region (FIG. 4). […] A single base pair change introduced as a result of engineering the BamHI site has the effect of converting the -35 sequence from CTGATT to CCGATT (FIG. 4).

[11] = test system: FI8199 (nisA/S5A,S33A); experiment: as above; assay type: cell-based, L. lactis; conditions: nisin level tolerated by strain FI8199 nisA/S5A
Description: as §1

[12] = test system: FI8070 (nisA/S5A); experiment: as above; assay type: cell-based, L. lactis; conditions: nisin level tolerated by strain FI8070 nisA/S5A
Description: as §1

[13] = test system: MG1614; experiment: as above; assay type: cell-based, L. lactis; conditions: nisin level tolerated by strain MG1614
Description: as §1

[14] = test system: FI7893 (nisA); experiment: as above; assay type: cell-based, L. lactis; conditions: nisin level tolerated by strain FI7893 nisA
Description: as §1

[15] = test system: FI8198 (nisA/S33A); experiment: as above; assay type: cell-based, L. lactis; conditions: nisin level tolerated by strain FI8198 nisA/S33A
Description: as §1

Row | Compound | MIC [1] | nisin activity (% of wild type), complementation [2] | antimicrobial activity against sensitive indicator strains [3] | Activity (% of wt) ([4]; antimicrobial activity in culture supernatants of gene-replaced strains, plate diffusion bioassays) | zone of inhibition / inhibitory effect compared with parent strain FI5876 ([4]; cell extracts of gene-replaced strains, plate diffusion bioassay) | nisin activity (% of wild type), gene replacement ([4]; plate diffusion bioassay, functional nisA gene incorporated in the chromosome of FI7990 in place of nisA deletion) | Induction ([5]; inducing agent at 100 ng ml^−1) | Induction ([5]; inducing agent at 1 mg ml^−1) | antimicrobial activity, plasmid-encoded gene complementing nisA deficiency [6] | Immunity [7] | Immunity [8] | Immunity ([9]; nisin level tolerated by strain FI5876 (wild type)) | nisin concentration at which the strain continues growing ([9]; parent strain FI5876) | Immunity [10] | Immunity [11] | Immunity [12] | Immunity [13] | Immunity [14] | Immunity [15]
1 | C/C=C(\NC(=O)[C@@H](N)[C@@H](C)CC)C(=O)N[C@@H]1CSC[C@@H](C(=O)N[C@H]2C(=O)N3CCC[C@H]3C(=O)NCC(=O)N[C@H](C(=O)N[C@@H](CCCCN)C(=O)N[C@H]3C(=O)NCC(=O)N[C@@H](C)C(=O)N[C@@H](CC(C)C)C(=O)N[C@@H](CCSC)C(=O)NCC(=O)N[C@H](C(=O)N[C@@H](CC(N)=O)C(=O)N[C@@H](CCSC)C(=O)N[C@@H](CCCCN)C(=O)N[C@H]4C(=O)N[C@@H](C)C(=O)N[C@H]5C(=O)N[C@@H](CS[C@H]4C)C(=O)N[C@@H](Cc4c[nH]cn4)C(=O)N[C@H](C(=O)N[C@@H](CO)C(=O)N[C@H](C(=O)N[C@@H](Cc4c[nH]cn4)C(=O)N[C@H](C(=O)N[C@@H](C)C(=O)N[C@@H](CCCCN)C(=O)O)C(C)C)[C@@H](C)CC)CS[C@H]5C)CS[C@H]3C)CS[C@H]2C)NC(=O)[C@H](CC(C)C)NC(=O)[C@H](C)NC(=O)[C@H]([C@@H](C)CC)NC1=O [nisin A (Dha5A, Dha33A)] | 1000 µg/mL (≈ 298 µM) | <1^d % of wild type | retained their antimicrobial activity | 100 % of wt | equivalent that of nisin A containing the single mutation and also the wild type molecule | 100 % of wild type | 34 | 106 | only detected in the more sensitive colony overlay assay | – | – | – | – | – | – | – | – | – | –
2 | nisin | – | – | – | – | – | – | – | – | – | 0.5-0.75 U/ml × 10^3 | 0.25-0.5 U/ml × 10^3 | >1 U/ml × 10^3 | over 1000 U/ml | 0.25-0.5 U/ml × 10^3 | >1 U/ml × 10^3 | >1 U/ml × 10^3 | 0.01 U/ml × 10^3 | >1 U/ml × 10^3 | >1 U/ml × 10^3
